Data: the supplement of paper PMC10307832

How the values were obtained:
Test in all cases: relative viability (nuclei count vs DMSO), 5 days (fraction); higher = more cells survive
Seliciclib + Tozasertib = compound: CC[C@H](CO)Nc1nc(NCc2ccccc2)c2ncn(C(C)C)c2n1 [Seliciclib] + Cc1cc(Nc2cc(N3CCN(C)CC3)nc(Sc3ccc(NC(=O)C4CC4)cc3)n2)n[nH]1 [Tozasertib] (partner 0.1 µM)
Method in brief: (§1)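 Lung cancer cell lines in 1536-well plates got either a single drug or a fixed anchor-drug dose together with five library-drug doses (not always all listed) in √10 steps, by pin tool, on the day after seeding. Nuclei were counted after 5 days, and relative viability is the treated-to-vehicle ratio of nuclei counts. Values are medians of duplicate plates.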

Seliciclib + Crizotinib = compound: CC[C@H](CO)Nc1nc(NCc2ccccc2)c2ncn(C(C)C)c2n1 [Seliciclib] + C[C@@H](Oc1cc(-c2cnn(C3CCNCC3)c2)cnc1N)c1c(Cl)ccc(F)c1Cl [Crizotinib] (partner 1 µM)
Method in brief: as §1

Seliciclib + Lapatinib = compound: CC[C@H](CO)Nc1nc(NCc2ccccc2)c2ncn(C(C)C)c2n1 [Seliciclib] + CS(=O)(=O)CCNCc1ccc(-c2ccc3ncnc(Nc4ccc(OCc5cccc(F)c5)c(Cl)c4)c3c2)o1 [Lapatinib] (partner 2 µM)
Method in brief: as §1

Seliciclib + Decitabine = compound: CC[C@H](CO)Nc1nc(NCc2ccccc2)c2ncn(C(C)C)c2n1 [Seliciclib] + Nc1ncn([C@H]2C[C@H](O)[C@@H](CO)O2)c(=O)n1 [Decitabine] (partner 2 µM)
Method in brief: as §1

Cell Line | relative viability (Seliciclib + Tozasertib; first compound 0.08 µM) | relative viability (Seliciclib + Tozasertib; first compound 0.253 µM) | relative viability (Seliciclib + Tozasertib; first compound 0.8 µM) | relative viability (Seliciclib + Tozasertib; first compound 2.53 µM) | relative viability (Seliciclib + Tozasertib; first compound 8 µM) | relative viability (Seliciclib + Crizotinib; first compound 0.08 µM) | relative viability (Seliciclib + Crizotinib; first compound 0.253 µM) | relative viability (Seliciclib + Crizotinib; first compound 0.8 µM) | relative viability (Seliciclib + Crizotinib; first compound 2.53 µM) | relative viability (Seliciclib + Crizotinib; first compound 8 µM) | relative viability (Seliciclib + Lapatinib; first compound 0.08 µM) | relative viability (Seliciclib + Lapatinib; first compound 0.253 µM) | relative viability (Seliciclib + Lapatinib; first compound 0.8 µM) | relative viability (Seliciclib + Lapatinib; first compound 2.53 µM) | relative viability (Seliciclib + Lapatinib; first compound 8 µM) | relative viability (Seliciclib + Decitabine; first compound 0.08 µM) | relative viability (Seliciclib + Decitabine; first compound 0.253 µM) | relative viability (Seliciclib + Decitabine; first compound 0.8 µM) | relative viability (Seliciclib + Decitabine; first compound 2.53 µM) | relative viability (Seliciclib + Decitabine; first compound 8 µM)
201T | 0.948 | 0.959 | 0.893 | 0.964 | 0.745 | 1.04 | 0.996 | 1.04 | 1.02 | 0.95 | 1.08 | 1.07 | 1 | 0.952 | 0.843 | 0.827 | 0.893 | 0.857 | 0.806 | 0.728
A-427 | 0.245 | 0.202 | 0.187 | 0.2 | 0.192 | 0.833 | 0.924 | 0.795 | 0.905 | 0.785 | 1.03 | 1.08 | 1.13 | 1.02 | 1.01 | 0.606 | 0.521 | 0.612 | 0.52 | 0.589
ABC-1 | 0.149 | 0.131 | 0.189 | 0.186 | 0.207 | 1.2 | 1.46 | 0.814 | 1.08 | 0.495 | 1.18 | 1.06 | 1.19 | 1.17 | 0.894 | 1.11 | 1.18 | 1.17 |  | 0.6
BEN | 0.451 | 0.481 | 0.585 | 0.502 | 0.468 | 0.753 |  | 0.822 | 0.929 | 0.832 | 0.826 | 0.525 | 0.772 | 0.677 | 0.629 | 0.738 | 0.739 | 0.761 | 0.698 | 0.622
CAL-12T | 0.297 | 0.313 | 0.294 | 0.247 | 0.234 | 0.624 |  | 0.846 | 0.687 | 0.461 | 0.619 | 0.793 | 0.551 | 0.67 | 0.276 |  |  |  |  | 
COR-L23 | 0.224 | 0.234 | 0.187 | 0.164 | 0.154 | 0.61 | 0.806 | 0.693 | 0.671 | 0.519 | 0.921 | 1.14 | 0.929 | 1.12 | 0.87 | 0.395 | 0.34 | 0.478 | 0.419 | 0.403
COR-L 105 | 0.423 | 0.321 | 0.366 | 0.346 | 0.436 | 0.846 | 0.698 | 0.698 | 0.806 | 0.6 | 0.367 | 0.347 | 0.416 | 0.311 | 0.279 | 0.568 | 0.664 | 0.648 | 0.605 | 0.557
Calu-6 |  |  |  |  |  | 0.773 | 0.846 | 0.825 | 0.956 | 0.668 | 0.993 | 1.13 | 1.08 | 1.08 | 0.934 |  |  |  |  | 
ChaGo-K-1 | 0.241 | 0.225 | 0.213 | 0.222 | 0.238 | 1.14 | 1.01 | 1.12 | 1.12 | 0.488 |  |  |  |  |  | 0.519 | 0.472 | 0.509 | 0.516 | 0.475
EBC-1 |  |  |  |  |  | 0.199 | 0.226 | 0.199 | 0.201 | 0.213 | 0.25 | 0.225 | 0.251 | 0.23 | 0.227 |  |  |  |  | 
